Consider nine molecules from patent US20040110821A1, “GAL3 receptor antagonists for the treatment of affective disorders” (priority 2002, published 2004).

Several values for one entry are separate records, joined by “and”; a condition that tells them apart may be missing. Equal values may be shown once. Marks after values point to notes of the source that are not given here.

The experiment relates to Male Sprague-Dawley rats. The experiment is described as follows: Rat Forced Swim Test (FST). As to conditions: for overall profile in the Forced Swim Test (conclusion in words): rat, in vivo. It is filed as in vivo.
Setting [1] is: 3 mg/kg p.o., single administration 1 hr before 5 min test.
Where [2] appears, read: 1 mg/kg p.o., single administration 1 hr before 5 min test.
Where [3] appears, read: 10 mg/kg p.o., single administration 1 hr before 5 min test.
Where [4] appears, read: 3 mg/kg p.o., single administration 1 hr before 5 min test, listed as EX22.
The mark [5] stands for this setting: 10 mg/kg p.o., single administration 1 hr before 5 min test, listed as EX22.
The mark [6] stands for this setting: 30 mg/kg p.o., single administration 1 hr before 5 min test.
The mark [7] stands for this setting: 30 mg/kg p.o., single administration 1 hr before 5 min test, listed as EX22.
Setting [8] is: 3 mg/kg p.o., single administration 24 hours before the test.
Setting [9] is: 5 mg/kg p.o., single administration 1 hr before 5 min test.
[10] abbreviates: 10 mg/kg p.o., single administration 1 hr before 5 min test, listed as Fluox.
Setting [11] is: 10 mg/kg p.o., single administration 1 hr before 5 min test, listed as fluoxetine.
Setting [12] is: 10 mg/kg p.o., single administration 24 hours before the test.

For `O=C1C(=Nc2cc(Cl)cc(Cl)c2)c2ccccc2N1c1ccccc1` [EX103], the Swimming under setting [1] was determined as 13.2 ± 1.9 counts.

Turning to `CN(C)c1cc(Nc2ccc(Cl)c(Cl)c2)nc(N2CCN(Cc3ccccc3)CC2)n1` [EX151], under setting [2], the Climbing came to 2.3 ± 0.6 counts, the Diving was determined as 0.2 ± 0.2 counts, the Immobility is 41 ± 2.0 counts and the Swimming is recorded as 16.8 ± 1.4^d counts. Besides, under setting [1], the Climbing is 2.4 ± 0.5 counts, the Diving is 0.3 ± 0.2 counts, the Immobility is on record as 38 ± 2.0^a counts and the Swimming is 19.5 ± 1.5^e counts. In addition, under setting [3], the Climbing was 2.2 ± 0.5 counts, the Diving is 0.3 ± 0.2 counts, the Immobility was 39 ± 1.8^b counts and the Swimming is recorded as 18.9 ± 1.5^e counts.

Take `Cc1ccc(Nc2cc(N3CCCCC3)nc(N(C)CCc3ccccc3)n2)cc1` [Example 22]: the “overall profile in the Forced Swim Test (conclusion in words)” value (“overall profile in the Forced Swim Test” for short) was “has antidepressant-like properties”. Besides, under setting [1], the Climbing is 2.0 ± 0.6 counts, the Diving entry was “not significantly altered”, the Immobility worked out at 50 ± 0.9 counts and the Swimming entry is given as “did not significant alter swimming behavior”. In addition, under setting [4], the Diving amounted to 0.4 ± 0.4 counts and the Swimming came to 7.6 ± 0.5 counts. Under setting [3], the Climbing was 2.9 ± 0.5 counts, the Diving entry was “not significantly altered”, the Immobility result was “significant decrease in immobility” and the Swimming result is reported as “significant increase in swimming”. Under setting [5], the Diving amounted to 0.4 ± 0.3 counts, the Immobility was 41 ± 1.3^c counts and the Swimming was 15.3 ± 0.8^g counts. Also, under setting [6], the Climbing result is listed as “significant increase in climbing”, the Diving result is reported as “not significantly altered”, the Immobility result is reported as “significant decrease in immobility” and the Swimming entry is recorded as “significantly greater increase in swimming behavior”. In addition, under setting [7], the Climbing is given as 5.2 ± 1.0^a counts, the Diving was found to be 0.0 ± 0.0 counts, the Immobility is 31 ± 2.8^b counts and the Swimming is on record as 23.2 ± 2.0^f counts.

`O=C1C(=Nc2ccc(C(F)(F)F)cc2)c2ccccc2N1c1ccccc1` [Example 95, 1-PHENYL-3-[[4-(TRIFLUOROMETHYL)PHENYL]IMINO]-1,3-DIHYDRO-2H-INDOL-2-ONE]: the “overall profile in the Forced Swim Test” value is “does not produce antidepressant-like actions in the forced swim test”. In addition, under setting [1], the Climbing result is listed as “did not significantly alter swimming, climbing, immobility or diving behavior”; the Diving entry is reported as “did not significantly alter swimming, climbing, immobility or diving behavior”; the Immobility result is “did not significantly alter swimming, climbing, immobility or diving behavior”; the Swimming entry is “did not significantly alter swimming, climbing, immobility or diving behavior”. Under setting [3], the Immobility entry is given as “significantly increased rat immobility” and the Swimming entry is recorded as “significantly decreased swim behavior”. Also, under setting [6], the Immobility entry is “significantly increased rat immobility” and the Swimming entry is on record as “significantly decreased swim behavior”.

Turning to `O=C1C(=Nc2ccc(Br)cc2)c2ccccc2N1c1ccccc1` [Example 98, 3-[(4-BROMOPHENYL)IMINO]-1-PHENYL-1,3-DIHYDRO-2H-INDOL-2-ONE], the “overall profile in the Forced Swim Test” value is reported as “produces a profile in the modified Lucki version of the FST resembling that of the clinically established antidepressant fluoxetine”. Moreover, under setting [1], the Climbing entry is “no significant difference in the number of climbing counts”, the Diving result is on record as “not significantly altered”, the Immobility entry was “significantly decreased immobility” and the Swimming entry is on record as “significantly increased swimming”. Moreover, under setting [3], the Climbing entry is “no significant difference in the number of climbing counts”, the Diving entry is given as “not significantly altered”, the Immobility result is reported as “significantly decreased immobility” and the Swimming entry is “significantly increased swimming”. Moreover, under setting [6], the Climbing result is reported as “no significant difference in the number of climbing counts”, the Diving entry was “not significantly altered”, the Immobility result is given as “significantly decreased immobility” and the Swimming entry is listed as “significantly increased swimming”.

Take `O=C1C(=Nc2cc(Cl)cc(Cl)c2)c2ccccc2N1c1ccccc1` [Example 103, 3-[(3,5-DICHLOROPHENYL)IMINO]-1-PHENYL-1,3-DIHYDRO-2H-INDOL-2-ONE]: the “overall profile in the Forced Swim Test” value was “has antidepressant-like properties”. Also, under setting [1], the Climbing result is “not significantly altered”, the Diving entry is listed as “not significantly altered”, the Immobility entry is “did not significantly alter immobility” and the Swimming entry is “did not significantly alter swimming behavior”. Under setting [3], the Climbing entry is listed as “not significantly altered”, the Diving entry is “not significantly altered”, the Immobility entry is “did not significantly alter immobility” and the Swimming result is listed as “did not significantly alter swimming behavior”. Under setting [6], the Climbing result is given as “not significantly altered”, the Diving result is on record as “not significantly altered”, the Immobility entry is listed as “significant decrease in immobility” and the Swimming entry was “significantly greater increase in swimming behavior”.

As to `CN(C)c1cc(Nc2ccc(Cl)c(Cl)c2)nc(N2CCN(Cc3ccccc3)CC2)n1` [Example 151], the “overall profile in the Forced Swim Test” value is recorded as “produces behavioral effects in the FST in rats that resemble those of antidepressants”. For the same molecule, under setting [2], the Climbing entry is “not significantly altered”, the Diving entry is reported as “not significantly altered”, the Immobility entry is recorded as “did not significantly alter immobility” and the Swimming entry is reported as “significantly increased swimming”. Further, under setting [1], the Climbing entry is recorded as “not significantly altered”, the Diving entry is on record as “not significantly altered”, the Immobility result is reported as “significantly decreased immobility” and the Swimming entry is listed as “significantly increased swimming”. Besides, under setting [3], the Climbing result is reported as “not significantly altered”, the Diving entry is listed as “not significantly altered”, the Immobility result is “significantly decreased immobility” and the Swimming result is on record as “significantly increased swimming”.

Take `O=C1/C(=N\c2ccc(Cl)c(Cl)c2)c2ccccc2N1c1ccsc1` [Example 272, (3Z)-3-[(3,4-DICHLOROPHENYL)IMINO]-1-(3-THIENYL)-1,3-DIHYDRO-2H-INDOL-2-ONE]: the “overall profile in the Forced Swim Test” value is “has the profile of an antidepressant-like”. In addition, under setting [8], the Climbing entry is “not significantly altered”, the Diving entry is recorded as “not significantly altered”, the Immobility result was “significantly decreased immobility” and the Swimming entry is on record as “significant increase in swimming behavior”.

As to `CNCCC(Oc1ccc(C(F)(F)F)cc1)c1ccccc1` (stereo not shown) [Fluoxetine, fluoxetine, reference compound], the Climbing result is, setting by setting: under setting [9], “not significantly altered”; (10 mg/kg i.p., single injection 1 h before 5 min test) “did not significantly alter climbing counts”; under setting [12], “not significantly altered”. Also, the Diving entry is reported as “not significantly altered” under setting [9]; “not significantly altered” (10 mg/kg p.o., single administration 1 hr before 5 min test, listed as fluoxet-ine); “not significantly altered” under setting [11]; “not significantly altered” under setting [12]. The Immobility entry under setting [9] is given as “did not significantly alter immobility”; the Immobility under setting [10] was 38 ± 2.3^a counts and 34 ± 2.3^b counts and 34 ± 3.0^a counts and 34 ± 3.3^b counts and 38 ± 1.3^b counts and 39 ± 1.7^d counts and 38 ± 2.2 counts; the Immobility result under setting [11] is on record as “significantly decreased immobility”; the Immobility entry under setting [12] is reported as “significantly decreased immobility”. Further, the Swimming entry was “did not significantly alter swimming” under setting [9]; 19.8 ± 1.8^e counts and 21.8 ± 1.4^c counts and 22.8 ± 2.2^c counts and 21.3 ± 1.8^d,e counts and 21.6 ± 1.1^e counts and 19.2 ± 1.2^e counts and 20.0 ± 1.5^c counts under setting [10]; “significant increase in swimming behavior” under setting [11]; “significant increase in swimming behavior” under setting [12].
